The results in this text go back to patent publication US11447503B2, “Pyridine carbamates and their use as GLUN2B receptor modulators” (JANSSEN PHARMACEUTICA NV, priority 2019, dated 2022).

Series [1] can be described thus: Liver microsomal stability assay (extraction ratio). Type of series: in vitro ADME. To be noted: test compound 1 μM; 0.5 mg/mL liver microsomes, NADPH, 37° C.; species not stated (method: mouse, rat, and human). The procedure: 5.4. Liver Microsomal Stability Assay (Extraction Ratio)
Microsomal stability studies (see, Chrovian et al, “H-Pyrrolo[3,2-b]pyridine GluN2B-Selective Negative Allosteric Modulators”. ACS Med Chem Lett. 2019 Jan. 10; 10(3):261-266) were conducted on a Biomek® FX Robotic Liquid Handling Workstation (Beckman Coulter, Brea, Calif.), which consists of a 96-channel pipette head, a 12-position workstation deck, and a plate incubator. Test compounds (1 μM) were spiked in a reaction mix consisting of 100 mM potassium phosphate buffer (pH 7.4), 3 mM MgCl2, and 0.5 mg/mL liver microsomes from mouse, rat, and human (BD Gentest). The reaction was brought to 37° C. and initiated by adding NADPH to a final concentration of 1 mM. After mixing on the platedeck, 50 μL aliquots were excised from the reaction plate at 0, 5, 10, 20, 40, and 60 min and quenched with four volumes of acetonitrile spiked with […] of the internal standard phenytoin. Quenched plates were centrifuged at 5700 rpm for 10 min at 4° C., and supernatant was diluted 1:3 in water before LC/MS/MS analysis. The compound half-lives were derived from plots of the In of percent remaining compound over time to determine the intrinsic clearance. The predicted hepatic clearance was derived from the intrinsic clearance value using equations from the well-stirred model (Current Drug Metabolism, 2008, 9, 940-951), where no correction was made plasma protein binding and the blood to plasma concentration ratio was assumed to be one. The extraction ratio (ER) was calculated by dividing the predicted hepatic clearance by species blood flow (Q), where Q is 90, 55, and 21.7 mL/min/kg for mouse, rat and human, respectively.
For orientation: Microsomes from liver hold many membrane-bound enzymes, among them those of drug oxidation.

Series [2] addresses human GluN1/GluN2B NMDA receptors (Homo sapiens, UniProt Q05586+Q13224). The experiment in a line: Cell-based calcium flux (FLIPR) assay on cloned human GluN1/GluN2B ion channels expressed in mammalian cells. To be noted: standard assay; glutamate ~EC40, 10 μM glycine; stable Tet-On cell line. In outline: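 Tet-On-induced stable cells expressing human GluN1/GluN2B, Calcium 5 dye. Compounds preincubated 5 min (agonist check), then glutamate at ~EC40 plus 10 μM glycine added for 5 min; Mg2+ and buffer composition differ between standard and HTS formats. FLIPR Tetra fluorescence normalised to control wells; (+)MK-801 as antagonist control.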

Sequence of human GluN1/GluN2B NMDA receptors (Q13224 27-1484, other chains not shown): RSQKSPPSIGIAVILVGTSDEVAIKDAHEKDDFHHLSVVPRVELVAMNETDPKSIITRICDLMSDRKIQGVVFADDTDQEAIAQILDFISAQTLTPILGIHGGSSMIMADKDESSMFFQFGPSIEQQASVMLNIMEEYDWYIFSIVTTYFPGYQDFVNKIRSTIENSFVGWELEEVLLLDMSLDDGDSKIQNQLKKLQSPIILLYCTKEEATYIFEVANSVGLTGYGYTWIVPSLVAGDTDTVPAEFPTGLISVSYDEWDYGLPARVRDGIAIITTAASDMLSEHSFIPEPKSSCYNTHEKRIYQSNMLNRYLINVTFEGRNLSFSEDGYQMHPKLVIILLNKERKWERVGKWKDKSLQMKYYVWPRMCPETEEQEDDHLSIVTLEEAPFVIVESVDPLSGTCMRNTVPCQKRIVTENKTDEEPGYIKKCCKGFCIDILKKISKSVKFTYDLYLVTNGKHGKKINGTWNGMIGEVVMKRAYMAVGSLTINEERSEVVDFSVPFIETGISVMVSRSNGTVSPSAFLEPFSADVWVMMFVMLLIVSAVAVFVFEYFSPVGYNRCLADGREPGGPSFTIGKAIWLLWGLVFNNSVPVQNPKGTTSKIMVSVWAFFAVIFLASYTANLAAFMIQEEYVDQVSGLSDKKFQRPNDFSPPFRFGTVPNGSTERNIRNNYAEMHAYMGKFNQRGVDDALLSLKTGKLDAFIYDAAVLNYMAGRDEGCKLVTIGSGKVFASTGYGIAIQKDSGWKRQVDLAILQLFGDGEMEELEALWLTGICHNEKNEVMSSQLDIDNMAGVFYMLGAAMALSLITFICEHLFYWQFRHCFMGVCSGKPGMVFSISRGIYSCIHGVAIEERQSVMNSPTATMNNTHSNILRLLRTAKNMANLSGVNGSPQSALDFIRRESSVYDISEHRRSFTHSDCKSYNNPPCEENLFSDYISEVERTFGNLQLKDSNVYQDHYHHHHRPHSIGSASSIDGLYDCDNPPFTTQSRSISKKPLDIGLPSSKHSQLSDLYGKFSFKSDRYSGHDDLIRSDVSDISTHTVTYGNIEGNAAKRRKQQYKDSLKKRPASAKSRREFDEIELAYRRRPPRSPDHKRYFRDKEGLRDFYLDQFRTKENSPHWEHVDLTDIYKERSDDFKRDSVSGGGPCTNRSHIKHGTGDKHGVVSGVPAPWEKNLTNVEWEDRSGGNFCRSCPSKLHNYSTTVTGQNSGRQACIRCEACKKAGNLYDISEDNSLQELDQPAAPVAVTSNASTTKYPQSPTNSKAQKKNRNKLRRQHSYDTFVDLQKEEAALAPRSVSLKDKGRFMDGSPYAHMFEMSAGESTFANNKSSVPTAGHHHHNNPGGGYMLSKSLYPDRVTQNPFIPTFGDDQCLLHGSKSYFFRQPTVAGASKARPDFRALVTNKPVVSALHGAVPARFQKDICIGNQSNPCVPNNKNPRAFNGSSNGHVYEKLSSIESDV

For `CC(c1cncc(-c2ccc(F)c(C(F)F)c2)c1)N1CCOC1=O` (racemic) [Example 60, (R/S)-3-[1-[5-[3-(difluoromethyl)-4-fluoro-phenyl]-3-pyridyl]ethyl]oxazolidin-2-one], the “Extraction Ratio @ 1 μM” value in series [1] stood at 0.42. For the same compound, the concentration for half-maximal inhibition (IC50) in series [2] amounted to 785 nM.

Take `C[C@H]1CN(Cc2cncc(-c3ccc(F)c(C(F)F)c3)c2)C(=O)O1` (single isomer, unassigned) [Example 27, (S*)-3-[[5-[3-(Difluoromethyl)-4-fluoro-phenyl]-3-pyridyl]methyl]-5-methyl-oxazolidin-2-one]: in series [1], the “Extraction Ratio @ 1 μM” value worked out at 0.42. Also, the IC50 in series [2] amounted to 14 nM.

For `O=C1OCCCN1Cc1cncc(-c2ccc(F)c(OC(F)F)c2)c1` [Example 1, 3-[[5-[3-(Difluoromethoxy)-4-fluoro-phenyl]-3-pyridyl]methyl]-1,3-oxazinan-2-one], the “Extraction Ratio @ 1 μM” value in series [1] came out at 0.49. The IC50 in series [2] stood at 10 nM.

As to `O=C1OCCN1Cc1cncc(-c2ccc(F)c(C(F)F)c2)c1` [Example 22, 3-[[5-[3-(Difluoromethyl)-4-fluoro-phenyl]-3-pyridyl]methyl]oxazolidin-2-one], the “Extraction Ratio @ 1 μM” value in series [1] was determined as 0.63. Also, the IC50 in series [2] worked out at 11 nM.

As for `O=C1OCCCN1Cc1cncc(-c2ccc(F)c(C(F)F)c2)c1` [Example 38, 3-[[5-[3-(Difluoromethyl)-4-fluoro-phenyl]-3-pyridyl]methyl]-1,3-oxazinan-2-one], the “Extraction Ratio @ 1 μM” value in series [1] was <0.298. In series [2], the half-maximal inhibitory concentration (IC50) came out at 9 nM.

Regarding `O=C1OCCCN1Cc1cncc(-c2ccc(Cl)c(OC(F)F)c2)c1` [Example 53, 3-[[5-[4-chloro-3-(difluoromethoxy)phenyl]-3-pyridyl]methyl]-1,3-oxazinan-2-one], the “Extraction Ratio @ 1 μM” value in series [1] is recorded as 0.61.

Take `[2H]C([2H])(c1cncc(-c2ccc(F)c(C(F)F)c2)c1)N1CCOC1=O` [Example 54, 3-[Dideuterio-[5-[3-(difluoromethyl)-4-fluoro-phenyl]-3-pyridyl]methyl]oxazolidin-2-one]: in series [1], the “Extraction Ratio @ 1 μM” value stood at 0.61. Also, the concentration for half-maximal inhibition (IC50) in series [2] was determined as 13 nM.

Take `Cc1ncc(-c2ccc(F)c(C(F)F)c2)cc1CN1CCOC1=O` [Example 90, 3-[[5-[3-(Difluoromethyl)-4-fluoro-phenyl]-2-methyl-3-pyridyl]methyl] oxazolidin-2-one]: the “Extraction Ratio @ 1 μM” value in series [1] turned out to be 0.60. In addition, the IC50 in series [2] is 13 nM.

Take `Cc1ncc(-c2ccc(F)c(C(F)F)c2)cc1CN1CCCOC1=O` [Example 97, 3-[[5-[3-(Difluoromethyl)-4-fluoro-phenyl]-2-methyl-3-pyridyl]methyl]-1,3-oxazinan-2-one]: the “Extraction Ratio @ 1 μM” value in series [1] is on record as 0.55. Moreover, in series [2], the half-inhibitory concentration (IC50) is 27 nM.

With `C[C@@H]1CN(Cc2cc(-c3ccc(F)c(OC(F)F)c3)cnc2C(C)(F)F)C(=O)O1` [Example 149, (5R)-3-[[2-(1,1-Difluoroethyl)-5-[3-(difluoromethoxy)-4-fluoro-phenyl]-3-pyridyl]methyl]-5-methyl-oxazolidin-2-one], the 50% inhibitory concentration (IC50) in series [2] was determined as 127 nM.

Take `O=C1OCCN1Cc1cc(-c2ccc(F)c(OC(F)F)c2)cnc1F` [Example 150, 3-((5-(3-(Difluoromethoxy)-4-fluorophenyl)-2-fluoropyridin-3-yl)methyl)oxazolidin-2-one]: the IC50 in series [2] came out at 11 nM.

Take `O=C1OCCCN1Cc1cc(-c2ccc(F)c(OC(F)F)c2)cnc1F` [Example 151, 3-((5-(3-(Difluoromethoxy)-4-fluorophenyl)-2-fluoropyridin-3-yl)methyl)-1,3-oxazinan-2-one]: the IC50 in series [2] came out at 11 nM.

For orientation: IC50 means the point on the concentration scale where inhibition reaches its midpoint.
